The target in the assay is T1, SETD2 (1347-1711) (Homo sapiens, UniProt Q9BYW2).
T1 sequence (Q9BYW2 1347-1711): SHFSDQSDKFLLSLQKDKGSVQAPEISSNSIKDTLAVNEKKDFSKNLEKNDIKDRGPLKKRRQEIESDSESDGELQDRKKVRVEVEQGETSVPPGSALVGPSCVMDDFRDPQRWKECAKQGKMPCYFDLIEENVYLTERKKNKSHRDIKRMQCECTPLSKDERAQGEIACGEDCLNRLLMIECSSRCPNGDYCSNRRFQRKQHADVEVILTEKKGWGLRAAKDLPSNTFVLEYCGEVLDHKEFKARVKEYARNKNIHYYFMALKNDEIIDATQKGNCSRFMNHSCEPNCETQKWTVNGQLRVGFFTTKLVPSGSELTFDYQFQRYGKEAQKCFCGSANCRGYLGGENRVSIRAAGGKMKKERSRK
The assay can be described thus: Filter-paper methylation assay, SETD2. In kind it is biochemical.

Turning to `Nc1ncnc2c1ncn2C1OC(CC(CCC(N)C(=O)O)NCc2ccccc2)C(O)C1O` (stereo not shown) [Compound 110], half-maximal inhibition (IC50) required 500 nM.

The values are drawn from patent US9493501B2 (MEMORIAL SLOAN-KETTERING CANCER CENTER, priority 2011, dated 2016).
